Several values for one entry are separate records, joined by “and”; a condition that tells them apart may be missing. Equal entries are not always repeated. Entries after “also recorded” stand apart in the source; their conditions may differ. Where two headings read alike, the source gives them in different places.
Experiments:
[1] = Mouse hepatic microsome stability; assay type: in vitro ADME; details: mouse hepatic microsomes
IL-4 [2] = molecular target: T1, IL-4 (Homo sapiens, UniProt P05112); assay: HEK-Blue IL-4/IL-13 reporter assay, IL-4 inhibition; assay type: cell-based; details: for inhibition at 10 µM: HEK-Blue; for inhibition at 10 µM / % Inhibition: IL-4, HEK Blue IL-4/IL-13 reporter assay, 10 μM; for EC50: dose response, IL-4 inhibition; for Hill coefficient: fit of dose response in HEK Blue IL-4/IL-13 reporter assay
T1 construct: purchased Acros Biosystems IL4-H4218; host or cells: HEK-293
T1 sequence (P05112 25-153): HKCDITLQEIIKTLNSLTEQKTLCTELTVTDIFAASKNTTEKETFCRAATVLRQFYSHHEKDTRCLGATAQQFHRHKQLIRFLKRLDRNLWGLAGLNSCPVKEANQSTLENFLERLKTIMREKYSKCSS
Method: HEK-Blue IL-4/IL-13 Inhibition assay. HEK-Blue IL-4/IL-13 reporter cell lines were purchased from Invivogen and cultured in DMEM with 10% Heat Inactivated Fetal Bovine Serum (FBS), 100 U/ml-100 μg/ml Pen-Strep, 10 μg/ml blasticidin, 100 μg/ml Normocin and 100 μg/ml Zeocin. Cells were tested for secreted embryonic alkaline phosphatase (SEAP) production induced by IL-4 alone prior to small molecule screening.
22.5 μl of small molecule in DMEM 4% DMSO was added to 22.5 μl of 1 ng/ml IL-4 in DMEM in a non-binding 96-well reaction plate for 30 minutes at room temperature. The reaction plate was further incubated for 30-60 min at 37° C. HEK-Blue IL-4/IL-13 reporter cell line was used between passages 11-17. […] Measurements were done in triplicate. The plate was incubated for ˜22-24 hours at 37° C./5% CO2. Quanti-Blue dye was prepared as per the manufacturer's recommendation and 160 μl was dispensed in each well of a 96-well plate (avoid edges to avoid evaporation), 40 μl of cell supernatant was added to the same plate and incubated for 3 hours at 37° C./5% CO2. Optical density was then measured at 650 nm using Molecular Devices SpectraMax M5 Microplate reader. Data was analyzed and plotted using GraphPad Prism 9.2.0.

IL-13 [3] = molecular target: T2, IL-13 (Homo sapiens, UniProt P35225); assay: HEK-Blue IL-4/IL-13 reporter assay, IL-13 inhibition; assay type: cell-based
Method: Prior to screening. […] The solution was added to preincubated cells in a 96-well culture plate. The supernatant was then incubated with Quanti-Blue dye for 3 hours and absorbance was measured at 650 nm. Data was analyzed and plotted using GraphPad Prism 9.2.0.

[4] = PAMPA membrane permeability; assay type: in vitro ADME; details: 18 hours incubation
Method: PVDF membranes purchased from Bioassay Systems PAMPA-096 were coated with 5 μL of 4% Phosphatidylcholine (Lecithin, MP Biomedicals 0210214780) in dodecane. […] Permeability was calculated by Pv=C×ln (1−ODA/ODE) cm/s, where ODA is the absorbance of acceptor solution minus blank, and ODE the absorbance of the equilibrium standard minus blank, and C=7.72×10^−6 using an 18-hour incubation time.

IL-4 [5] = molecular target: T1, IL-4; assay: HEK-Blue IL-4/IL-13 reporter assay, IL-4 inhibition; assay type: cell-based; details: control: cells with 10 μM compound only, no IL-4
soluble IL-4 = molecular target: T3, soluble IL-4 (Homo sapiens, UniProt P05112); assay: Differential scanning fluorimetry (thermal shift), IL-4; assay type: binding; details: soluble IL-4, 2 μM compound, 0.1% DMSO; read-out: Tm shift
T3 sequence (P05112 25-153): T1 sequence (P05112 25-153)
Method: DSF was performed using BioRad CFX384.

Mouse plasma stability = assay type: in vitro ADME
[6] = system: IL-4 induced STAT-6 phosphorylation in THP-1 monocytes (type II IL-4 receptor); assay: THP-1 STAT-6 phosphorylation assay (western blot); assay type: cell-based
Method: THP-1 cells were received as a gift from the laboratory of Dr. Mark Grinstaff and maintained in RMPI-1640 with […] heat-inactivated Fetal Bovine Serum and 50 μM beta-mercaptoethanol. Cells used for assays were between passages 6 and 10, 10 ng/mL IL-4 was preincubated with experimental sample (vehicle or analogs) for 30 minutes at 37° C. 1 mL of each solution was then added to a pellet of 2 E6 THP-1 cells and pipetted up and down. THP-1 cells were incubated for 30 minutes in the incubator at 37 C/5% CO2. Cells were then spun down and lysed with 200 μL ice-cold RIPA buffer complete with phosphatase and protease inhibitors. Cell lysates were incubated on ice for 30 minutes, spun down and the supernatants were stored at −20° C. until western blot analysis. Undiluted cell lysates were run on SDS-PAGE and transferred to Immunoblot PVDF membrane using Biorad equipment. Membranes were incubated with 1:1000 primary antibody overnight at 4° C. Membranes were then incubated with 1:50,000 dilution secondary for 1 hour at room temperature. Membranes were then exposed to Femto ECL for 5 minutes and imaged using a Bio-Rad Gel Doc. The brightness/contrast was adjusted in FIJI and the area under the curve of each lane was quantified. The phosphorylated STAT-6 to STAT-6 ratio was calculated and normalized to the amount of total STAT-6. The data was plotted and analyzed using GraphPad Prism 9.2.0′.

[7] = system: IL-4 induced STAT-6 phosphorylation in Ramos B lymphocytes (type I IL-4 receptor); assay: Ramos STAT-6 phosphorylation assay (western blot); assay type: cell-based; details: for inhibition at 0.5 µM: read-out: percent inhibition of STAT-6 phosphorylation; for inhibition of phosphorylation of STAT-6: 50 nM
Method: Ramos cells were purchased from ATCC and maintained in RMPI-1640 with 10% heat-inactivated Fetal Bovine Serum. Cells used for assays were between passages 4 and 8. […] Undiluted cell lysates were run SDS-PAGE and transferred to Immunoblot PVDF membrane using Biorad equipment. Membranes were incubated with 1:1000 primary antibody overnight at 4° C. Membranes were then incubated with 1:50,000 dilution secondary for 1 hour at room temperature. Membranes were then exposed to Femto ECL for 5 minutes and imaged using a Bio-Rad Gel Doc. The brightness/contrast was adjusted in FIJI and the area under the curve of each lane was quantified. The phosphorylated STAT-6 to STAT-6 ratio was calculated and normalized to the amount of total STAT-6. The data was plotted and analyzed using GraphPad Prism 9.2.0.

[8] = system: IL-4 induced pSTAT-6 in THP-1 cells; assay: THP-1 pSTAT-6 immunofluorescence
Method: IL-4 and analogs or vehicle (DMEM with 2% DMSO) were preincubated for 2 hours at 37° C. After the incubation, IL-4 or IL-4/analogs were incubated with THP-1 cells for 30 min at 37° C./5% CO2. Incubated cells were centrifuged for 5 min at 250×g. After aspirating the supernatant, cells were resuspended in 1×PBS and plated into a MatTek dish coated with Cell Tak adhesive for 30 minutes at room temperature. Cells were fixed with 4% Paraformaldehyde for 1 hour at room temperature. Cells were rinsed twice with 1×PBS and then permeabilized with 0.5% Triton-X for 1 hour at room temperature. Cells were rinsed again with 1×PBS, and blocked for an hour in superblock with 0.05% Tween-20, rinsed twice, and then incubated with anti-pSTAT-6 1:100 diluted in superblock 0.05% Tween-20 overnight at 4° C. (parafilmed to avoid evaporation). Cells were rinsed thrice with 1×PBS and then incubated with Mouse anti-rabbit IgG(H+L) Secondary Antibody-Alexa Fluor 647 for 1 hour at room temperature in the dark. […] Cells were rinsed twice with 1×PBS and left in 1 ml of 1×PBS. Confocal Imaging was done using an Olympus FV10i and images were processed using FIJI.

B16-F10 cells = assay: In vitro cytotoxicity (CellTiter-Glo); assay type: cell-based; details: up to 25 μM
Method: CellTiter-Glo 2.0 purchased from Promega G9242) was used to measure cell viability with the Victor-3 plate reader (PerkinElmer) after 24 hours in concentrations of compound up to 25 μM. Vehicle was used as a negative control for both cytotoxicity and growth inhibition, methanol was used as a positive control for cytotoxicity, and 1% FBS was used as a positive control for growth inhibition.

Human plasma stability = assay type: in vitro ADME
IL-13 [9] = molecular target: T2, IL-13; details: previously reported; cited from earlier work
[10] = system: murine IL-4 induced STAT-6 phosphorylation in RAW 264.7 macrophages; assay: RAW 264.7 STAT-6 phosphorylation assay (western blot); assay type: cell-based
Method: RAW 264.7 cells were purchased from ATCC and maintained in DMEM with 10% heat-inactivated Fetal Bovine Serum. Cells used for assays were between passages 3 and 5. […] The undiluted cell lysates were run SDS-PAGE followed by transfer to Immunoblot PVDF membrane using Biorad equipment. Membranes were incubated with 1:1000 primary antibody overnight at 4° C. Membranes were then incubated with 1:50,000 dilution secondary for 1 hour at room temperature. Membranes were then exposed to Femto ECL for 5 minutes and imaged using a Bio-Rad Gel Doc. The brightness/contrast was adjusted in FIJI and the area under the curve of each lane was quantified. The phosphorylated STAT-6 to STAT-6 ratio was calculated and normalized to the amount of total STAT-6. The data was plotted and analyzed using GraphPad Prism 8.

[11] = molecular target: IL-4 induced STAT-6 phosphorylation in THP-1 monocytes (type II IL-4 receptor); details: previously reported, read-out: EC50 of inhibition of STAT-6 phosphorylation; cited from earlier work
[12] = HEK Blue IL-4/IL-13 reporter assay, read-out: EC50

T2 sequence (P35225 25-146): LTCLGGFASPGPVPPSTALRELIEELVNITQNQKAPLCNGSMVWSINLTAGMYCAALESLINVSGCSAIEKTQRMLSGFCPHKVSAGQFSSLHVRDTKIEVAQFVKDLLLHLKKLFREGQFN

In the case of N#Cc1c(-c2ccc(O)c(O)c2)cc(C23CC(C2)C3)nc1N [1A/54, 6-(bicyclo[1.1.1]pentan-1-yl)-4-(3,4-dihydroxyphenyl)-2-imino-2,3-dihydropyridine-3-carbonitrile], the “Mouse hepatic microsome stability (% remaining after 1 hour)” value [1] is reported as 68.3% and the inhibition at 10 µM (IL-4 [2]; read-out: % Inhibition) is reported as 86.1%.
In the case of N#Cc1c(-c2ccc(O)c(O)c2)cc(-c2ccc(N)cc2)[nH]c1=N [Compound 14, 6-(4-aminophenyl)-4-(3,4-dihydroxyphenyl)-2-imino-1,2-dihydropyridine-3-carbonitrile], the “fold less potent for IL-13 than for IL-4” value (IL-13 [3]; IL-13 EC50 versus IL-4 EC50) is reported as 100 fold, the EC50 (IL-13 [3]; soluble IL-13 mediated signaling, HEK Blue IL-4/IL-13 reporter assay) is reported as 18.2 µM and the Papp at 18 h, 100 μM [4] is reported as 6.2 ×10⁻⁶ cm/s. The Abs650 (IL-4 [5]) was 0.05948 ± 0.000642, the ΔTm at 2 µM (soluble IL-4) was 1.66 °C and the “Mouse plasma stability (% remaining after 3 hours)” value (Mouse plasma stability) was greater than 99%. For the same compound, the “Mouse plasma stability (% remaining after 3 hours)” value (Mouse plasma stability; listed as Analog 14) was greater than 99%/>99%, the “Mouse hepatic microsome stability (% remaining after 1 hour)” value [1] was 75.4% and the “Mouse hepatic microsome stability (% remaining after 1 hour)” value ([1]; listed as Analog 14) was 75.4%. For the same compound, the EC50 ([6]; Homo sapiens, THP-1 monocytes, western blot, normalized to STAT-6, read-out: EC50 of inhibition of STAT-6 phosphorylation) was 686 nM, the STAT-6 levels ([6]; total STAT-6, THP-1 cells) was “not impacted” and the “% Inhibition” value (IL-4 [2]) was 94.5% and 94.5 ± 1.58% and 94.5 ± 1.68%. It also gave an inhibition at 10 µM (IL-4 [2]) greater than 80%, an EC50 (IL-4 [2]; [12]) of 670 ± 280 nM and an EC50 (IL-4 [2]; values in text, read-out: potency (EC50 of inhibition)) of 627 nM. The Hill coefficient (IL-4 [2]) was 1.69±0.25, the inhibition at 0.5 µM ([7]; Homo sapiens, Ramos) was 31.4% and the “inhibition of phosphorylation of STAT-6” value ([7]; Ramos B lymphocytes) was “minimum inhibition”. For the same compound, the “STAT-6 phosphorylation by immunofluorescence” value ([8]; 500 nM) was “significant reduction in STAT-6 phosphorylation”, the “STAT-6 phosphorylation by immunofluorescence” value ([8]; 5 μM) was “almost no visible STAT-6 phosphorylation” and the “Cytotoxicity in B16-F10 cells (24 hours)” value (B16-F10 cells) was “no toxicity”. The “Cytotoxicity in B16-F10 cells (24 hours)” value (B16-F10 cells; listed as Analog 14) was “n.s. < 25 μM” and the “Human plasma stability (% remaining after 3 hours)” value (Human plasma stability; listed as Analog 14) was greater than 99%/>99%.
N#Cc1c(-c2cccnc2)cc(-c2ccc(F)cc2)[nH]c1=N [Compound 50, 6′-(4-fluorophenyl)-2′-imino-1′,2′-dihydro-[3,4′-bipyridine]-3′-carbonitrile] showed an inhibition at 10 µM (IL-4 [2]) of 10 ± 17.2%.
Compound N#Cc1c(-c2ccc(O)c(C(=O)O)c2)cc(-c2ccc(F)cc2)[nH]c1=N [Compound 51, 5-(3-cyano-6-(4-fluorophenyl)-2-imino-1,2-dihydropyridin-4-yl)-2-hydroxybenzoic acid] has an inhibition at 10 µM (IL-4 [2]; read-out: % Inhibition) of 54.6 ± 11.6%.
With N#Cc1c(-c2ccc(O)c(Br)c2)cc(-c2ccc(F)cc2)[nH]c1=N [Compound 52, 4-(3-bromo-4-hydroxyphenyl)-6(4-fluorophenyl)-2-imino-1,2-dihydropyridine-3-carbonitrile] the inhibition at 10 µM (IL-4 [2]) was 58.8 ± 16.5%.
N#Cc1c(-c2ccc(O)c(I)c2)cc(-c2ccc(F)cc2)[nH]c1=N [Compound 53, 6(4-fluorophenyl)-4-(4-hydroxy-3-iodophenyl)-2-imino-1,2-dihydropyridine-3-carbonitrile] showed an inhibition at 10 µM (IL-4 [2]) of 58.9 ± 19.9%.
For N#Cc1c(-c2ccc(O)c(O)c2)cc(-c2ccc(F)cc2)nc1N [Nico-52, 4-(3,4-dihydroxyphenyl)-6-(4fluorophenyl)-2-imino-1,2-dihydropyridine-3-carbonitrile, reference compound], the “fold higher inhibition for IL-4 activity than IL-13 activity” value (IL-13 [9]) is listed as 10 fold, the Papp at 18 h, 100 μM [4] is listed as 16.4 ×10⁻⁶ cm/s and the “Mouse plasma stability (% remaining after 3 hours)” value (Mouse plasma stability) is listed as 97%. The “Mouse hepatic microsome stability (% remaining after 1 hour)” value [1] was 86.5%, the EC50 ([10]; Mus musculus, RAW264.7, RAW 264.7 macrophages, murine IL-4, read-out: EC50 of reduction in pSTAT-6 levels) was 1280 nM and the STAT-6 levels ([10]; total STAT-6, RAW 264.7) was “not affected”. For the same compound, the EC50 [11] was 3.1 µM, the “% Inhibition” value (IL-4 [2]) was 97.6 ± 1.57% and the inhibition at 10 µM (IL-4 [2]; read-out: % Inhibition) was greater than 97%. It also gave an EC50 (IL-4 [2]; [12]) of 1320 ± 380 nM, a Hill coefficient (IL-4 [2]) of 1.24±0.08 and an inhibition at 0.5 µM ([7]; Homo sapiens, Ramos B lymphocytes, 500 nM) of 14.6%. The EC50 ([7]; Homo sapiens, Ramos B lymphocytes, western blot, read-out: EC50 of inhibition of STAT-6 phosphorylation) was 1030 nM, the “inhibition of phosphorylation of STAT-6” value ([7]; Ramos B lymphocytes) was “minimum inhibition” and the “Cytotoxicity in B16-F10 cells (24 hours)” value (B16-F10 cells) was “no toxicity; also recorded: n.s. < 25 μM”. For the same compound, the “Human plasma stability (% remaining after 3 hours)” value (Human plasma stability) was greater than 99%.
